Assay results as given in ChEMBL document CHEMBL4145615, “Indolyl Azaspiroketal Mannich Bases Are Potent Antimycobacterial Agents with Selective Membrane Permeabilizing Effects and in Vivo Activity” (J Med Chem, 2018).
In brackets after ≈: the same amount, converted by molar mass.

These compounds were tested on Mycobacterium tuberculosis variant bovis BCG (assay: Antimycobacterial activity against Mycobacterium bovis BCG ATCC 35734 after 5 days by broth dilution method). Details: ATCC 35734, 120 h.
Type: functional
Work on `COc1ccc2c(CN3CCC4(CC3)OCCCO4)cn(CCCCc3ccccc3)c2c1` yielded an MIC50 of 1.6 µM (≈ 0.718 µg/mL) and an MIC90 of 3.1 µM (≈ 1.39 µg/mL). `COc1ccc2c(CN3CCCCC3)cn(CCCOc3ccc(C)c(C)c3)c2c1` was tested, and the MIC50 was 18 µM (≈ 7.32 µg/mL) and the MIC90 was 25 µM (≈ 10.2 µg/mL). `CCCCCCCCn1cc(CN2CCCC3(C2)CC3(F)F)c2ccc(OC)cc21` (stereo unspecified) was tested, and the MIC50 was 13 µM (≈ 5.44 µg/mL) and the MIC90 was 25 µM (≈ 10.5 µg/mL). With `CCCCCCCCn1ccc2c(OCCCN3CCCCCC3)cccc21` the MIC50 was 9.5 µM (≈ 3.65 µg/mL) and the MIC90 was 22 µM (≈ 8.46 µg/mL). Work on `CCCCCCCCn1cc(CN2CCOC3(CCCOC3)C2)c2ccc(OC)cc21` (stereo unspecified) yielded an MIC50 of 1.8 µM (≈ 0.772 µg/mL) and an MIC90 of 6.3 µM (≈ 2.7 µg/mL). In the case of `CCCCCCCCn1cc(CN2CCCCC2)c2ccc(C#N)cc21`, the MIC50 is reported as 2 µM (≈ 0.703 µg/mL) and the MIC90 is reported as 6 µM (≈ 2.11 µg/mL). Work on `CCCCCCCCn1cc(CN2[C@H]3CCC[C@@H]2CCC3)c2ccc(OC)cc21` yielded an MIC50 of 3.8 µM (≈ 1.51 µg/mL) and an MIC90 of 7.6 µM (≈ 3.01 µg/mL). Work on `COc1ccc2c(CN3CCC4(CC3)OCCCO4)cn(CCCOCc3ccccc3)c2c1` yielded an MIC50 of 2 µM (≈ 0.929 µg/mL) and an MIC90 of 6 µM (≈ 2.79 µg/mL). With `CCCCCCCCn1cc(CN2CCCCC2)c2ccc(OC)cc21` the MIC50 was 7 µM (≈ 2.5 µg/mL) and the MIC90 was 13 µM (≈ 4.64 µg/mL). `CCCCCCCCn1ccc2ccc(OCCCN3CCCCCC3)cc21` was tested, and the MIC50 was 3.9 µM (≈ 1.5 µg/mL) and the MIC90 was 12 µM (≈ 4.62 µg/mL). Compound `CCCCCCCCn1cc(CNCC2CC3CCC2C3)c2ccc(OC)cc21` (stereo unspecified) has an MIC50 of 1.1 µM (≈ 0.436 µg/mL) and an MIC90 of 1.9 µM (≈ 0.754 µg/mL). `COc1ccc2c(CN3CCC4(CC3)OCCO4)cn(CCCCOc3ccccc3)c2c1` gave an MIC50 of 20 µM (≈ 9.01 µg/mL) and an MIC90 of 41 µM (≈ 18.5 µg/mL). `CCCCCCCCn1ccc2cc(OCCCN3CCC4(CC3)OCCCO4)ccc21` was tested, and the MIC50 was 14 µM (≈ 6.2 µg/mL) and the MIC90 was 31 µM (≈ 13.7 µg/mL). `CCCCCCCCn1cc(CN2CC3COCC(C2)O3)c2ccc(OC)cc21` showed an MIC50 of 17 µM (≈ 6.81 µg/mL) and an MIC90 of 30 µM (≈ 12 µg/mL). `CCCCCCCCn1ccc2cc(OCCCN3CCCC3)ccc21` was tested, and the MIC50 was 31 µM (≈ 11.1 µg/mL) and the MIC90 was 48 µM (≈ 17.1 µg/mL). For `COc1ccc2c(CN3CCC4(CC3)OCCCO4)cn(C/C=C/c3ccccc3)c2c1`, the MIC50 was 4.8 µM (≈ 2.08 µg/mL) and the MIC90 was 9 µM (≈ 3.89 µg/mL). `COc1ccc2c(CN3CCCCC3)cn(CCCOCc3ccccc3)c2c1` showed an MIC50 of 46 µM (≈ 18.1 µg/mL) and an MIC90 greater than 50 µM. `COc1ccc2c(CN3CCC4(CC3)OCCCO4)cn(CCCc3ccccc3)c2c1` gave an MIC50 of 2.6 µM (≈ 1.13 µg/mL) and an MIC90 of 9.8 µM (≈ 4.26 µg/mL). `COc1ccc2c(CN3CCC4(CC3)OCCO4)cn(CCCOc3ccc(C)cc3)c2c1` showed an MIC50 of 4.8 µM (≈ 2.16 µg/mL) and an MIC90 of 11 µM (≈ 4.96 µg/mL). `COc1ccc2c(CN3CCCCC3)cn(CCCc3ccccc3)c2c1` showed an MIC50 of 36 µM (≈ 13.1 µg/mL) and an MIC90 greater than 50 µM. `COc1ccc(CCCn2cc(CN3CCCCC3)c3ccc(OC)cc32)cc1` was tested, and the MIC50 was 18 µM (≈ 7.07 µg/mL) and the MIC90 was 39 µM (≈ 15.3 µg/mL). Compound `CCCCCCCCn1cc(CN2CCC3(CC2)OCCO3)c2ccc(OCCC)cc21` has an MIC50 of 3 µM (≈ 1.33 µg/mL) and an MIC90 of 5 µM (≈ 2.21 µg/mL). `CCCCCCCCn1cc(CN2CCC3(CC2)OC(C)C(C)O3)c2ccc(OC)cc21` (stereo unspecified) gave an MIC50 of 0.7 µM (≈ 0.31 µg/mL) and an MIC90 of 1.6 µM (≈ 0.708 µg/mL). With `CCCCCCCCn1cc(CNCC2CCC3(CCCC3)O2)c2ccc(OC)cc21` (stereo unspecified) the MIC50 was 1.8 µM (≈ 0.768 µg/mL) and the MIC90 was 4.6 µM (≈ 1.96 µg/mL). `COc1ccc2c(CN3CCC4(CC3)OCCCO4)cn(CCCOc3ccccc3)c2c1` was tested, and the MIC50 was 1.3 µM (≈ 0.586 µg/mL) and the MIC90 was 3.1 µM (≈ 1.4 µg/mL). Compound `CCCCCCCCn1ccc2ccc(OCCCN3CCCCC3)cc21` has an MIC50 of 13 µM (≈ 4.82 µg/mL) and an MIC90 of 25 µM (≈ 9.26 µg/mL). For `CCCCCCCCn1cc(CN2CCCCC2)c2ccc([N+](=O)[O-])cc21`, the MIC50 was 4 µM (≈ 1.49 µg/mL) and the MIC90 was 5 µM (≈ 1.86 µg/mL). With `CCCCCCCCn1ccc2cccc(OCCCN3CCCCCC3)c21` the MIC50 was 5 µM (≈ 1.92 µg/mL) and the MIC90 was 11 µM (≈ 4.23 µg/mL). Compound `CCCCCCCCn1cc(CN2CCC3(CC2)OC[C@H](C)O3)c2ccc(OC)cc21` has an MIC50 of 0.5 µM (≈ 0.214 µg/mL) and an MIC90 of 0.9 µM (≈ 0.386 µg/mL). `CCCCCCCCn1ccc2cc(OCCCN3CCCCC3)ccc21` gave an MIC50 of 13 µM (≈ 4.82 µg/mL) and an MIC90 of 40 µM (≈ 14.8 µg/mL). Work on `CCCCCCCCn1ccc2ccc(OCCCN3CCC4(CC3)OCCCO4)cc21` yielded an MIC50 of 5.6 µM (≈ 2.48 µg/mL) and an MIC90 of 28 µM (≈ 12.4 µg/mL). Compound `CCCCCCCCn1cc(CN2CCC3(C=Cc4ccccc43)CC2)c2ccc(OC)cc21` has an MIC50 of 1 µM (≈ 0.457 µg/mL) and an MIC90 of 2 µM (≈ 0.913 µg/mL). Work on `CCCCCCCCn1cc(CN2CCC3(CC2)OCCO3)c2ccc(C#N)cc21` yielded an MIC50 of 2.5 µM (≈ 1.02 µg/mL) and an MIC90 of 5 µM (≈ 2.05 µg/mL). In the case of `CCCCCCCCn1ccc2cccc(OCCCN3CCCCC3)c21`, the MIC50 is reported as 5 µM (≈ 1.85 µg/mL) and the MIC90 is reported as 13 µM (≈ 4.82 µg/mL). For `CCCCCCCCn1cc(CN2CCC(S(N)(=O)=O)CC2)c2ccc(OC)cc21`, the MIC50 was 8 µM (≈ 3.49 µg/mL) and the MIC90 was 22 µM (≈ 9.58 µg/mL). For `CCCCCCCCn1cc(CN2CCC3(CC2)OCCCO3)c2ccc(OCCC)cc21`, the MIC50 was 0.7 µM (≈ 0.32 µg/mL) and the MIC90 was 1.2 µM (≈ 0.548 µg/mL). `CCCCCCCCn1ccc2ccc(OCCCN3CCCC3)cc21` gave an MIC50 of 20 µM (≈ 7.13 µg/mL) and an MIC90 of 42 µM (≈ 15 µg/mL). With `CCCCCCCCn1cc(CNCC2CC3CC3C2)c2ccc(OC)cc21` (stereo unspecified) the MIC50 was 2 µM (≈ 0.765 µg/mL) and the MIC90 was 4 µM (≈ 1.53 µg/mL). In the case of `CCCCCCCCn1cc(CN2CCOC3(CCCO3)C2)c2ccc(OC)cc21` (stereo unspecified), the MIC50 is reported as 15 µM (≈ 6.22 µg/mL) and the MIC90 is reported as 46 µM (≈ 19.1 µg/mL). `CCCCCCCCn1cc(CN2CC(n3cccn3)C2)c2ccc(OC)cc21` was tested, and the MIC50 was 6 µM (≈ 2.37 µg/mL) and the MIC90 was 15 µM (≈ 5.92 µg/mL). `CCCCCCCCn1cc(CN2CCC3(CCO3)CC2)c2ccc(OC)cc21` was tested, and the MIC50 was 2 µM (≈ 0.797 µg/mL) and the MIC90 was 4 µM (≈ 1.59 µg/mL). `CCCCCCCCn1cc(CN2CCC3(CC2)OC[C@@H](C)O3)c2ccc(OC)cc21` gave an MIC50 of 0.6 µM (≈ 0.257 µg/mL) and an MIC90 of 0.8 µM (≈ 0.343 µg/mL). `CCCCCCCCn1cc(CN2CCC3(CC2)OCCO3)c2ccc(OC(C)C)cc21` showed an MIC50 of 3 µM (≈ 1.33 µg/mL) and an MIC90 of 6 µM (≈ 2.66 µg/mL).
